Measured values reported in patent US20240110202A1, “Advanced Cell-Permeable Peptide Carriers” (MUSC FOUNDATION FOR RESEARCH DEVELOPMENT, priority 2020, published 2024).
“Also recorded” adds a separate entry of the source.

Columns and labels:
siCIP2A [1] = experiment: siRNA binding assay (gel-shift); conditions: 10:1 Peptide:siRNA molar ratio
Source text: Afterwards, the samples were electrophoresed on a 4% agarose gel and stained with ethidium bromide. Free siCIP2A was used as a normalizing control. An Ultra-Low Range DNA Ladder (Thermo Fisher Scientific, Waltham, MA) was used as a MW marker. Resulting siCIP2A bands were imaged and quantified using a G:Box Chemi XX6 and GeneSys image capture software (Syngene, Frederick, MD), respectively.

CIP2A mRNA [2] = experiment: CIP2A silencing in cells, real-time PCR; type: cell-based, human; conditions: CAL 27 cells, 50:1, 48 hours
Procedure: CAL 27 cells, grown to a confluency of 60% on 24-well plates, were rinsed three times with Opti-MEM. […] Afterwards, the complexes were added to the cells at a siRNA concentration of 125 nM and incubated for 4 hours at 37° C. with 5% CO2, prior to adjusting the siRNA and FBS concentrations to 100 nM and 10%, respectively, with the addition of 50% FBS/Opti-MEM media. 48 hours post-treatment, the total RNA or protein was harvested for subsequent real-time PCR and Western blot analyses.
Total RNA was harvested using the RNeasy Mini Kit (Qiagen, Germantown, MD). RNA was then reverse transcribed using the High-Capacity cDNA Reverse Transcription Kit (Thermo Fisher Scientific) in a Bio-Rad (Hercules, CA) T100 Thermal Cycler. Next, quantitative real-time PCR was performed in an Applied Biosystems™ StepOnePlus™ Real-Time PCR machine (Thermo Fisher Scientific) using the TaqMan™ Fast Advanced Master Mix (Thermo Fisher Scientific) and predesigned TaqMan™ Gene Expression Assays (Thermo Fisher Scientific) for CIP2A (Hs00405413_m1) and 18S (4319413E), according to the manufacturer's instructions.

CAL 27 cells = experiment: Quantitative siRNA cell uptake assay; type: cell-based, human; conditions: DY547-siCIP2A, 2 hours post-treatment; for siRNA delivery into cells (internalization) compared to 599: 50:1 Peptide:siRNA molar (12.5 N/P) ratio
Procedure: CAL 27 cells, grown to a confluency of 60% on a 24-well plate, were rinsed three times with Opti-MEM I Reduced Serum Media (Opti-MEM; Thermo Fisher Scientific). […] After complexation, the total volume was brought to 600 μL with Opti-MEM, after which the cells were incubated with 500 μL of peptide-siCIP2A complexes for 2 hours at 37° C. with 5% CO2. As an additional control, the cells were also transfected with 50 pmol of DY547-siCIP2A using Lipofectamine® 3000 (Thermo Fisher Scientific), according to the manufacturer's instructions. After treatment, the cells were rinsed three times with PBS, before being trypsinized for 10 minutes at 37° C., followed by centrifugation for 5 minutes at 1,000×g at 4° C. The cells were then washed with ice cold phosphate-buffered saline (PBS) and centrifuged again for 5 minutes at 1,000×g at 4° C. Next, the cells were lysed in 250 μl ice cold 0.1 M NaOH. The cell lysates were centrifuged at 4° C. for 5 minutes at 10,000×g to remove cell debris. Afterwards, 100 μL of each sample was transferred to a black 96-well plate to measure fluorescence at 530/590 nm using a BioTek (Winooski, VT) Synergy HT plate reader. Fluorescence measurements were converted to the amount of internalized siRNAs using a standard curve that was generated per experiment using known concentrations of DY547-siCIP2A ranging from 0-100 fmol/μl. Subsequently, the amount of internalized siRNA was normalized to the amount of protein, which was quantitated using the Pierce BCA Protein Assay Kit (Thermo Fisher Scientific).

[3] = Physicochemical measurements (Zetasizer) of peptide-siCIP2A complexes; conditions: complex with siCIP2A at 50:1 Peptide:siRNA molar (12.5 N/P) ratio in water; for Particle Size: mean hydrodynamic size, dynamic light scattering, ± SD; for Particle Size / Zeta Potential: three experiments; for Zeta Potential: mean ± SD
Serum protection assay = type: in vitro ADME; conditions: siCIP2A, 50:1, 50% human serum, 1 hour at 37° C.
Procedure: Afterwards, complexes were either treated or untreated with 50% human serum (final concentration; VWR, Radnor, PA) for 1 hour at 37° C., followed by denaturation with 4% SDS. Next, the samples were electrophoresed on a 4% agarose gel and resulting siCIP2A bands were imaged and quantified, as described above.

siCIP2A [4] = experiment: siRNA release assay (heparin competition); conditions: 50:1 complexes; for siRNA release compared to 599: 0-10 μg heparin, 30 minutes at RT
Procedure: Afterwards complexes were incubated with either 0, 0.1, 0.5, 1.0, 2.0, 5.0 or 10 μg heparin (Millipore Sigma, St. Louis, MO) for 30 minutes at RT. The samples were then electrophoresed on a 4% agarose gel and resulting siCIP2A bands were imaged and quantified, as described above.

RNase A = experiment: RNase protection assay; type: biochemical; conditions: siCIP2A, 50:1, 1 hour at 37° C.
Procedure: Afterwards, complexes were either treated or untreated with 0.18 μg of RNase A (Thermo Fisher Scientific) for 1 hour at 37° C., followed by denaturation with 4% SDS. Next, the samples were electrophoresed on a 4% agarose gel and resulting siCIP2A bands were imaged and quantified, as described above.

CIP2A mRNA [5] = experiment: Dual peptide siRNA delivery system with GE11R9, CIP2A knockdown; type: cell-based, human; conditions: CAL 27 cells

Sequence of RNase A (P61823 27-150): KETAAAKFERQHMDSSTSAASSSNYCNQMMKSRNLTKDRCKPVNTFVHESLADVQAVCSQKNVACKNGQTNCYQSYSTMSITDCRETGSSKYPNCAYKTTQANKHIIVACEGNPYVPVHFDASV

| Substance | binding improvement relative to 599 (siCIP2A [1]) | gene silencing in comparison to 599 / among the peptide variants (CIP2A mRNA [2]) | siRNA delivery into cells compared to 599 (CAL 27 cells; 30:1 Peptide:siRNA molar (7.5 N/P) ratio) | siRNA delivery into cells (internalization) compared to 599 (CAL 27 cells) | PDI (Polydispersity index) [3] | Particle Size [3] | Zeta Potential [3] | ability to protect siRNAs in the presence of serum, compared to 599 (Serum protection assay) | siRNA release compared to 599 (siCIP2A [4]) | complexed siRNAs (maximally) released (siCIP2A [4]; increasing heparin, maximal at 4-fold excess and higher (≥2 μg; ≥120 pmol) of heparin) | ability to protect siRNAs in the presence of RNase A, compared to 599 (RNase A) | CIP2A knockdown with GE11R9 as compared to scrambled control peptide GE11SCR9 (CIP2A mRNA [5]) |
| --- | --- | --- | --- | --- | --- | --- | --- | --- | --- | --- | --- | --- |
| GlfeaieGfienGweGmidGwyGGGGRRRRRRRRRK [INF7D] | ~20% | weakest gene silencing effect among the peptide variants | dramatic and significant reduction in siRNA delivery into cells | significantly decreased levels of siRNA cell internalization; also recorded: adversely affect the intracellular delivery of siRNAs; also recorded: on average lower siRNA uptake abilities in comparison to 599; also recorded: poorest siRNA cell uptake | 0.296 | 190.4 ± 94.6 nm | 28.2 ± 10.2 mV | greatest instability in serum | No statistical differences in siRNA release |  |  |  |
| GlfeaieGfienGweGmidGwyGGGGrrrrrrrrrk [All-D] |  |  |  | on average lower siRNA uptake abilities in comparison to 599 | 0.366 | 185.9 ± 72.0 nm | 28.3 ± 7.7 mV | did not differ from 599 | poor siRNA release | ~70% | did not differ from 599 |  |
| YHWYGYTPQNVIGGGGRRRRRRRRRK [GE11R9, EGFR-targeting derivative of GE11 peptide with a stretch of densely packed cationic amino acids] |  |  |  |  |  |  |  |  |  |  |  | shown to be specific |
